Experimental data taken from BindingDB's records for doi:10.1016/0960-894X(95)00044-T (1995).

Target: DNA
Test: Inhibition of calf thymus DNA/ethidium bromide complex formation.

Row | Compound | EC50 [µM]
1 | Cc1cc(-c2c(F)cc3c(=O)ccn(C4CC4)c3c2F)cc(C)n1 [1-Cyclopropyl-7-(2,6-dimethyl-pyridin-4-yl)-6,8-difluoro-1H-quinolin-4-one] | > 55
2 | Cc1cc(-c2c(F)cc3c4nn([C@H]5CC[C@@H](N)CC5)c(=O)c-4cn(C4CC4)c3c2F)cc(C)n1 [2-(4-Amino-cyclohexyl)-5-cyclopropyl-7-(2,6-dimethyl-pyridin-4-yl)-6,8-difluoro-2,5-dihydro-pyrazolo[4,3-c]quinolin-3-one] | > 50
3 | Cc1cc(-c2c(F)cc3c4nn([C@H]5CC[C@H](N)CC5)c(=O)c-4cn(C4CC4)c3c2F)cc(C)n1 [2-(4-Amino-cyclohexyl)-5-cyclopropyl-7-(2,6-dimethyl-pyridin-4-yl)-6,8-difluoro-2,5-dihydro-pyrazolo[4,3-c]quinolin-3-one] | > 50
4 | Cc1cc(-c2c(F)cc3c4nn(C5CCCCC5)c(=O)c-4cn(C4CC4)c3c2F)cc(C)n1 [2-Cyclohexyl-5-cyclopropyl-7-(2,6-dimethyl-pyridin-4-yl)-6,8-difluoro-2,5-dihydro-pyrazolo[4,3-c]quinolin-3-one] | > 50
5 | Cc1cc(-c2c(F)cc3c4nn(CCN(C)C)c(=O)c-4cn(C4CC4)c3c2F)cc(C)n1 [5-Cyclopropyl-2-(2-dimethylamino-ethyl)-7-(2,6-dimethyl-pyridin-4-yl)-6,8-difluoro-2,5-dihydro-pyrazolo[4,3-c]quinolin-3-one] | 0.93
6 | Cc1cc(-c2c(F)cc3c4nn(CCCN(C)C)c(=O)c-4cn(C4CC4)c3c2F)cc(C)n1 [5-Cyclopropyl-2-(3-dimethylamino-propyl)-7-(2,6-dimethyl-pyridin-4-yl)-6,8-difluoro-2,5-dihydro-pyrazolo[4,3-c]quinolin-3-one] | > 50
7 | Cc1cc(-c2c(F)cc3c4nn([C@H]5CC[C@@H](N(C)C)CC5)c(=O)c-4cn(C4CC4)c3c2F)cc(C)n1 [5-Cyclopropyl-2-(4-dimethylamino-cyclohexyl)-7-(2,6-dimethyl-pyridin-4-yl)-6,8-difluoro-2,5-dihydro-pyrazolo[4,3-c]quinolin-3-one] | > 50
8 | Cc1cc(-c2c(F)cc3c4nn([C@H]5CC[C@H](N(C)C)CC5)c(=O)c-4cn(C4CC4)c3c2F)cc(C)n1 [5-Cyclopropyl-2-(4-dimethylamino-cyclohexyl)-7-(2,6-dimethyl-pyridin-4-yl)-6,8-difluoro-2,5-dihydro-pyrazolo[4,3-c]quinolin-3-one] | > 50
9 | Cc1cc(-c2c(F)cc3c4n[nH]c(=O)c-4cn(C4CC4)c3c2F)cc(C)n1 [5-Cyclopropyl-7-(2,6-dimethyl-pyridin-4-yl)-6,8-difluoro-2,5-dihydro-pyrazolo[4,3-c]quinolin-3-one] | 27
10 | Cc1cc(-c2c(F)cc3c4nn(C5CCN(C)CC5)c(=O)c-4cn(C4CC4)c3c2F)cc(C)n1 [5-Cyclopropyl-7-(2,6-dimethyl-pyridin-4-yl)-6,8-difluoro-2-(1-methyl-piperidin-4-yl)-2,5-dihydro-pyrazolo[4,3-c]quinolin-3-one] | > 50
11 | Cc1cc(-c2c(F)cc3c4nn(CCO)c(=O)c-4cn(C4CC4)c3c2F)cc(C)n1 [5-Cyclopropyl-7-(2,6-dimethyl-pyridin-4-yl)-6,8-difluoro-2-(2-hydroxy-ethyl)-2,5-dihydro-pyrazolo[4,3-c]quinolin-3-one] | > 60
12 | Cc1cc(-c2c(F)cc3c4nn(C5CCC(C)CC5)c(=O)c-4cn(C4CC4)c3c2F)cc(C)n1 (stereo unspecified) [5-Cyclopropyl-7-(2,6-dimethyl-pyridin-4-yl)-6,8-difluoro-2-(4-methyl-cyclohexyl)-2,5-dihydro-pyrazolo[4,3-c]quinolin-3-one] | > 50
13 | Cc1cc(-c2c(F)cc3c4nn(C5CCOCC5)c(=O)c-4cn(C4CC4)c3c2F)cc(C)n1 [5-Cyclopropyl-7-(2,6-dimethyl-pyridin-4-yl)-6,8-difluoro-2-(tetrahydro-pyran-4-yl)-2,5-dihydro-pyrazolo[4,3-c]quinolin-3-one] | > 50
14 | Cc1cc(-c2c(F)cc3c4nn(CCNCCO)c(=O)c-4cn(C4CC4)c3c2F)cc(C)n1 [5-Cyclopropyl-7-(2,6-dimethyl-pyridin-4-yl)-6,8-difluoro-2-[2-(2-hydroxy-ethylamino)-ethyl]-2,5-dihydro-pyrazolo[4,3-c]quinolin-3-one] | 1.2
15 | Cc1cc(-c2c(F)cc3c4nn(C)c(=O)c-4cn(C4CC4)c3c2F)cc(C)n1 [5-Cyclopropyl-7-(2,6-dimethyl-pyridin-4-yl)-6,8-difluoro-2-methyl-2,5-dihydro-pyrazolo[4,3-c]quinolin-3-one] | > 60
16 | Cc1cc(-c2c(F)cc3c4nn(-c5ccccc5)c(=O)c-4cn(C4CC4)c3c2F)cc(C)n1 [5-Cyclopropyl-7-(2,6-dimethyl-pyridin-4-yl)-6,8-difluoro-2-phenyl-2,5-dihydro-pyrazolo[4,3-c]quinolin-3-one] | > 60
17 | CC(=O)N[C@H]1CC[C@@H](n2nc3c4cc(F)c(-c5cc(C)nc(C)c5)c(F)c4n(C4CC4)cc-3c2=O)CC1 [N-{4-[5-Cyclopropyl-7-(2,6-dimethyl-pyridin-4-yl)-6,8-difluoro-3-oxo-3,5-dihydro-pyrazolo[4,3-c]quinolin-2-yl]-cyclohexyl}-acetamide] | > 52
18 | CC(=O)N[C@H]1CC[C@H](n2nc3c4cc(F)c(-c5cc(C)nc(C)c5)c(F)c4n(C4CC4)cc-3c2=O)CC1 [N-{4-[5-Cyclopropyl-7-(2,6-dimethyl-pyridin-4-yl)-6,8-difluoro-3-oxo-3,5-dihydro-pyrazolo[4,3-c]quinolin-2-yl]-cyclohexyl}-acetamide] | > 51
19 | Cc1cc(-c2c(F)cc3c(=O)c(C(=O)O)cn(C4CC4)c3c2F)cc(C)n1 [WIN-57294] | > 54
20 | CCOC(=O)Cn1nc2c3cc(F)c(-c4cc(C)nc(C)c4)c(F)c3n(C3CC3)cc-2c1=O [[5-Cyclopropyl-7-(2,6-dimethyl-pyridin-4-yl)-6,8-difluoro-3-oxo-3,5-dihydro-pyrazolo[4,3-c]quinolin-2-yl]-acetic acid ethyl ester] | > 60
21 | Cc1cc(-c2c(F)cc3c4nn(CC(=O)O)c(=O)c-4cn(C4CC4)c3c2F)cc(C)n1 [[5-Cyclopropyl-7-(2,6-dimethyl-pyridin-4-yl)-6,8-difluoro-3-oxo-3,5-dihydro-pyrazolo[4,3-c]quinolin-2-yl]-acetic acid] | > 60
